Laboratory results published in US12618835B2, “Multiplex microelectrode array for detection of proteases as biomarkers” (Kansas State University Research Foundation, priority 2021, dated 2026).
Where no end group is shown, it is not given here. [ ]: non-standard residue; d: D form. The star is where a group is joined. aminomethylferrocene = [Fe+2].c1cc[c-](CN*)c1.c1cc[cH-]c1; Ava = NCCCCC(=O)O

Test system: cathepsin B in human serum
Test: Electrochemical (ACV) proteolysis of peptide-Fc on Au MEA by diluted human serum, with and without spiked rhCB
Type: biochemical
Protocol: Electrochemical Experiments. Electrochemical experiments were performed on a specially designed electrochemical cell mounted on a large copper block for temperature control by circulating thermostatic silicone liquid through the internal channels. The thermal circulator (Julabo, Allentown, PA) was set to achieve a temperature of 38.6° C. Two buffer solutions, 0.5×PB (pH=7.4) and 25 mM MES (pH=5.0), were used. In some experiments, the rhCB was activated by incubation in 25 mM MES buffer (pH=5.0) containing 5 mM DTT for 15 min. About 10 uL activated cathepsin B solution was added to the electrochemical cell containing 815 uL buffer solution (i.e., 0.5×PB with pH=7.4) as the electrolyte. Fc signal on the Au surface was detected by alternating current voltammetry (ACV) with an AC frequency of 300 Hz and a voltage amplitude of 100 mV on a DC ramp from −0.45 V to 0.20 V vs. MSE. Electrochemical measurements were performed using an IVIUM n-Stat potentiostat (Eindhoven, The Netherlands), which allows measurement of up to ten independent working electrodes simultaneously versus a common MSE reference electrode and a common Pt coil counter electrode.
Electrochemical Detection of Cathepsin B Activity in Human Serum. To assess the activity of cathepsin B in HS, we compared the kinetic proteolysis curves of 5% HS in 0.5×PB with and without activation by the electrochemical method. The 5% HS concentration is slightly higher than the 2.5% used in ELISA measurements to ensure that a clear exponential decay can be observed in electrochemical experiments. To minimize errors, three Au MEA chips were prepared side-by-side for three sets of experiments, i.e., (i) non-activated 5% HS in 0.5×PB, (ii) activated 5% HS in 0.5×PB, and (iii) the blank 0.5×PB. […] Based on equation (2), the concentration of the active form of cathepsin B in non-activated and activated sample (equivalent to 100% HS) can be calculated by: […]
Electrochemical Assessment of Effective Cathepsin B Activity Spiked in Human Serum. […] The data were recorded over 8 channels of the peptide-Fc modified Au MEA simultaneously. […]

With “H2N-(CH2)4-CO-Pro-Leu-Ala-Phe-Val-Ala-NH-CH2-Fc ([Ava]PLAFVA-aminomethylferrocene) [Peptide H-15]” the 1/τ (activated 5% HS in 0.5×PB (DTT/MES), 8 channels) was “(33.2±3.0)×10^−4 s^−1”, the 1/τ (non-activated 5% HS in 0.5×PB spiked with 0.40 nM naturally active cathepsin B (1.0 nM non-activated rhCB)) was “(12.99±1.66)×10^−4 s^−1” and the 1/τ (non-activated 5% HS in 0.5×PB spiked with 1.0 nM activated cathepsin B) was “(68.4±7.53)×10^−4 s^−1”.
